Reference: PubChem BioAssay (NCI)
“And” between values parts separate entries of the source, which are not always exact repeats. Equal entries are not always repeated.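 Tested at 5 concentrations; 48 h exposure; 96-well plates; endpoints linearly interpolated, else capped at highest concentration. GI50 is the concentration that inhibits growth by half. The concentration for full growth arrest is given as TGI.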

Columns and labels:
Assay in all cases: NCI-60 cell line screen, 48 h
[1] = tested on: SNB-75 CNS
[2] = tested on: U251 CNS
[3] = tested on: NCI-H226 lung
[4] = tested on: SR leukemia
[5] = tested on: SW-620 colon
[6] = tested on: MDA-MB-435
[7] = tested on: HS 578T breast
[8] = tested on: SF-268 CNS
[9] = tested on: CAKI-1 renal
[10] = tested on: HCC-2998 colon

For C=CC1=C(C)C2=NC1=CC1=NC(=C(CC)/C1=C/O)C=C1C=C3C(=O)C(C(=O)OC)C(=C4NC(=C2)C(C)C4CCC(=O)OC/C=C(\C)CCCC(C)CCCC(C)CCCC(C)C)C3=N1 (centres undefined) (tested in a mixture with another compound), the TGI [1] was greater than 100 µM, the TGI [2] was greater than 100 µM and the TGI [3] was greater than 100 µM. It also gave a TGI [4] greater than 100 µM, a TGI [5] greater than 100 µM and a TGI [6] greater than 100 µM. For the same compound, the TGI [7] was greater than 100 µM, the TGI [8] was greater than 100 µM and the TGI [9] was greater than 100 µM. For the same compound, the TGI [10] was greater than 100 µM.

CCN(C)S(=O)(=O)Nc1cccc(Nc2ncnc3cc(NC(=O)CCl)ccc23)c1Cl showed a GI50 [1] of 3.36 µM, a TGI [1] of 7.67 µM and a GI50 [2] of 0.611 µM. The TGI [2] was 1.64 µM, the GI50 [3] was 3.68 µM and the TGI [3] was 12.6 µM. The GI50 [4] was 0.824 µM, the TGI [4] was 7.76 µM and the GI50 [5] was 1.07 µM. The TGI [5] was 4.52 µM, the GI50 [6] was 1.92 µM and the TGI [6] was 6.44 µM. For the same compound, the GI50 [7] was 3.55 µM, the TGI [7] was 18.6 µM and the GI50 [8] was 2.84 µM. The TGI [8] was 7.72 µM, the GI50 [9] was 3.15 µM and the TGI [9] was 8.5 µM. For the same compound, the GI50 [10] was 3.89 µM and the TGI [10] was 9.57 µM.

O=C(Nc1ccc(-n2cc(-c3ccncc3)c(-c3ccc(Cl)c(O)c3)n2)cc1)c1cc(Cl)cc(Cl)c1 gave a GI50 [1] of 2.79 µM, a TGI [1] greater than 100 µM and a GI50 [2] of 3.93 µM. The TGI [2] was greater than 100 µM, the GI50 [3] was greater than 100 µM and the TGI [3] was greater than 100 µM. For the same compound, the GI50 [4] was 3.33 µM, the TGI [4] was greater than 100 µM and the GI50 [5] was 3.72 µM. It also gave a TGI [5] greater than 28.8 µM, a GI50 [6] of 3.45 µM and a TGI [6] greater than 100 µM. For the same compound, the GI50 [7] was 4.3 µM, the TGI [7] was greater than 100 µM and the GI50 [8] was greater than 100 µM. It also gave a TGI [8] greater than 100 µM, a GI50 [9] of 2.03 µM and a TGI [9] greater than 24.6 µM. The GI50 [10] was 3.41 µM and the TGI [10] was greater than 23.6 µM.

For C=CC(=O)Nc1cc2c(Nc3ccc(OCc4ccccn4)c(Cl)c3)ncnc2cc1OCCN1CCOCC1, the GI50 [1] was 2.09 µM, the TGI [1] was greater than 74.3 µM and the GI50 [2] was 4.65 µM. For the same compound, the TGI [2] was greater than 100 µM, the GI50 [3] was 6.56 µM and the TGI [3] was greater than 83.6 µM. The GI50 [4] was 2.62 µM, the TGI [4] was greater than 100 µM and the GI50 [5] was 2.99 µM. For the same compound, the TGI [5] was 20.7 µM, the GI50 [6] was 5.94 µM and the TGI [6] was greater than 86.5 µM. The GI50 [7] was 2.01 µM, the TGI [7] was greater than 100 µM and the GI50 [8] was 2.87 µM. It also gave a TGI [8] greater than 65.9 µM, a GI50 [9] of 1.86 µM and a TGI [9] of 19.7 µM. The GI50 [10] was 2.2 µM and the TGI [10] was 11.1 µM.

With CC/C(=C(\c1ccc(O)cc1)c1ccc(OCCNC)cc1)c1ccccc1 the GI50 [1] was 2.15 µM and 1.96 µM and 1.32 µM, the TGI [1] was 7.39 µM and 6.81 µM and 2.76 µM and the GI50 [2] was 1.57 µM and 1.5 µM and 1.66 µM. For the same compound, the TGI [2] was 2.92 µM and 2.83 µM and 3.15 µM, the GI50 [3] was 9.26 µM and 6.49 µM and 4.33 µM and the TGI [3] was 28.4 µM and 23.7 µM and 17 µM. For the same compound, the GI50 [4] was 2.42 µM and 1.63 µM and 2.22 µM, the TGI [4] was 5.85 µM and 4.11 µM and 5.54 µM and the GI50 [5] was 1.69 µM and 1.75 µM and 1.85 µM. The TGI [5] was 3.11 µM and 3.26 µM and 3.74 µM, the GI50 [6] was 1.51 µM and 1.57 µM and 1.58 µM and the TGI [6] was 3.04 µM and 3.07 µM and 3.02 µM. The GI50 [7] was 0.356 µM and 1.34 µM and 1.78 µM, the TGI [7] was 3.42 µM and 3.32 µM and 5.18 µM and the GI50 [8] was 2.25 µM and 1.74 µM and 2.06 µM. The TGI [8] was 5.24 µM and 3.76 µM and 4.74 µM, the GI50 [9] was 1.82 µM and 1.68 µM and 2.02 µM and the TGI [9] was 4.28 µM and 3.52 µM and 6.29 µM. For the same compound, the GI50 [10] was 1.8 µM and 1.78 µM and 1.88 µM and the TGI [10] was 3.28 µM and 3.23 µM and 3.62 µM.

N#Cc1cccc(Nc2nccc(-c3cnn4ncccc34)n2)c1 showed a GI50 [1] of 0.00494 µM, a TGI [1] of 0.012 µM and a GI50 [2] of 0.00552 µM. It also gave a TGI [2] greater than 25 µM, a GI50 [3] of 0.00513 µM and a TGI [3] of 0.0152 µM. The GI50 [4] was 0.0025 µM, the GI50 [5] was 0.00602 µM and the TGI [5] was greater than 25 µM. For the same compound, the GI50 [6] was 0.00628 µM, the TGI [6] was 0.0239 µM and the GI50 [7] was 0.00482 µM. It also gave a TGI [7] of 0.021 µM, a GI50 [8] of 0.00498 µM and a TGI [8] of 0.3 µM. The GI50 [9] was 0.00729 µM, the TGI [9] was 1.17 µM and the GI50 [10] was 0.00695 µM. It also gave a TGI [10] of 0.0241 µM.

For NC(N)=NC(N)=NCCc1ccccc1, the GI50 [1] was > 100 µM and 81.2 µM, the TGI [1] was greater than 100 µM and the GI50 [2] was greater than 100 µM. The TGI [2] was greater than 100 µM, the GI50 [3] was greater than 100 µM and the TGI [3] was greater than 100 µM. It also gave a GI50 [4] of 8.44 µM, a TGI [4] greater than 100 µM and a GI50 [5] greater than 100 µM. The TGI [5] was greater than 100 µM, the GI50 [6] was greater than 100 µM and the TGI [6] was greater than 100 µM. For the same compound, the GI50 [7] was greater than 100 µM, the TGI [7] was greater than 100 µM and the GI50 [8] was greater than 100 µM. For the same compound, the TGI [8] was greater than 100 µM, the GI50 [9] was 58.5 µM and > 100 µM and the TGI [9] was greater than 100 µM. For the same compound, the GI50 [10] was greater than 100 µM and the TGI [10] was greater than 100 µM.

O=C(N/N=C/c1cc2ccccc2c2ccccc12)c1cc(O)c(O)c(O)c1 gave a GI50 [1] of 2.1 µM, a TGI [1] of 14.3 µM and a GI50 [2] of 2.96 µM. The TGI [2] was 14 µM, the GI50 [3] was 4.47 µM and the TGI [3] was 28.4 µM. It also gave a GI50 [4] of 3.72 µM, a TGI [4] greater than 100 µM and a GI50 [5] of 2.96 µM. It also gave a TGI [5] of 12.4 µM, a GI50 [6] of 3.58 µM and a TGI [6] of 16.9 µM. It also gave a GI50 [7] of 2.67 µM, a TGI [7] of 8.86 µM and a GI50 [8] of 3.74 µM. For the same compound, the TGI [8] was 14.7 µM, the GI50 [9] was 3.72 µM and the TGI [9] was 19.1 µM. For the same compound, the GI50 [10] was 8.54 µM and the TGI [10] was 22.4 µM.

Compound O=C1/C(=C\c2ccccc2)c2ccccc2N1Cc1ccccc1 has a TGI [1] of 22.8 µM, a TGI [2] of 15.2 µM and a TGI [3] of 35.6 µM. For the same compound, the TGI [4] was 9.66 µM, the TGI [5] was 15.1 µM and the TGI [6] was 16.5 µM. The TGI [7] was 20.9 µM, the TGI [8] was 14.8 µM and the TGI [9] was 13.2 µM. The TGI [10] was 16.4 µM.
